From patent publication US20220031871A1, “ANTIBODIES FOR CHELATED RADIONUCLIDES AND CLEARING AGENTS” (Hoffmann-La Roche Inc., priority 2018, published 2022)
Marks after values point to notes of the source that are not given here.

What was measured:
[1] = tested on: LS174T tumors; test: Protocol 93b: efficacy and biodistribution of CEA-PRIT; type: in vivo, SCID mice
Protocol: The bispecific antibodies were compared side-by-side in single- and double-cycle treatment regimens.
Groups A-G represent the treated mice that were followed up for assessment of efficacy, whereas groups H-L comprise mice that were sacrificed for biodistribution purposes 24 h after their last ^212Pb-DOTAM injection.
Solid xenografts were established by subcutaneous injection of cells in RPMI (BxPC3) or DMEM (LS174T) media mixed 1:1 with Corning® Matrigel® basement membrane matrix (growth factor reduced; cat No. 354230).
For protocol 93b, mice (age 9 weeks) were injected s.c. into the right flank with 1×10^6 LS174T cells (passage 26) in 100 μl DMEM/Matrigel. Three days after tumor cell injection, mice were sorted into experimental groups with an average tumor volume of 150 mm^3.
To minimize re-ingestion of radioactive urine/feces after treatment cycle 1, cages were changed 4 hours after ^212Pb-DOTAM administration, and then again at 24 h p.i. For cycle 2, mice were placed in cages with grilled floors for 4 hours after ^212Pb-DOTAM administration, before being transferred to new cages with standard bedding. All cages were then changed at 24 h p.i., as after cycle 1. The tumor development in the mice was followed through repeated calipering three times a week. If needed, additional calipering was performed in the gaps between scheduled measurements. The body weight of the animals was measured repeatedly in the same fashion. Mice whose tumor volume reached 3000 mm^3 were immediately euthanized. Other factors taken into account for euthanasia for ethical reasons were body weight loss, tumor status (e.g. ulceration) and general appearance of the animal. Wet food was provided to all animals starting from five days after the radioactive injection if mandated by an acute loss of body weight (collective or individual) due to radiation-induced toxicity, until all individuals had recovered sufficiently.
The following organs and tissues were harvested from groups A-G at the time of euthanasia: bladder, ovaries, liver, spleen, kidneys, femur (including bone marrow), colon, jejunum, stomach, and tumor. Unexpected or abnormal conditions were noted and photographed. Tissues were immediately put in 10% neutral buffered formalin (4° C.) and then transferred to PBS (4° C.) after 5 days. The formalin-fixed samples were then shipped to Roche Pharma Research and Early Development, Roche Innovation Center Basel, for further processing and analysis.
Mice in groups H, J, and L were sacrificed and necropsied 24 hours after their first and only injection of ^212Pb-DOTAM; groups I and K were sacrificed and necropsied 24 hours after their second ^212Pb-DOTAM injection. The following organs and tissues were harvested: blood, bladder, small intestine, colon, spleen, pancreas, kidneys, liver, lung, heart, femoral bone, muscle, tail, and tumor. Collected samples were weighed and measured for radioactivity, and the percent injected dose per gram of tissue (% ID/g) subsequently calculated, including corrections for decay and background.

[2] = tested on: s.c. BxPC3 tumors; test: Protocol 146: radiation dosimetry (absorbed doses, MIRD); type: in vivo, SCID mice; conditions: for Mean absorbed dose, RBE = 1 / Mean absorbed dose, RBE = 5: 20 μCi, pretargeted, tumor-bearing SCID
Protocol: Absorbed doses were calculated following the formalism outlined in Pamphlet No. 21 from the Medical Internal Radiation Dose (MIRD) Committee (Bolch W E, Eckerman K F, Sgouros G, and Thomas S R. J Nucl Med 2009; 50:477-484). Formally, the absorbed dose D(rT) in a target tissue or region rT is calculated as the time-integral of the activity A(rs,t) multiplied by the absorbed dose rate per unit activity S(rT←rs) summed over all source regions rs. Given that the vast majority of energy released by the ^212Pb decay chain comes from alpha radiation and furthermore by the much higher biological effectiveness of alpha radiation (as characterized by the relative biological effectiveness, RBE) two approximations were made: • 1. the energy is absorbed locally due to the short range of the alpha particles, which means that only the term s(rT←rT) is Considered, and • 2. the contribution from beta and gamma radiation is neglected.
With Δα being the energy released by alpha decays, or rather the sum of the mean energies released by alpha decays in the decay chain of ^212Pb, here expressed in units […], the absorbed dose in a target tissue or region rT is calculated by the formula: […]
The calculations are based on the composite (average) decay-corrected radioactive concentration at time t, expressed as [% ID^t/g]t. In a first step, these are transformed into radioactive concentrations as μCi per kg tissue weight for the target tissue rT:
AQ[μCi] is the injected activity and λ is the exponential decay rate for ^212Pb, 0.0651 h^−1 (corresponding to the 10.6-hour half-life).
In a second step, the radioactive concentration was integrated over time for each tissue. This was achieved using the “Linear Log Trapezoidal calculation method” in the pharmacokinetic software Phoenix WinNonlin 6.4 (Certara USA, Inc., 100 Overlook Center, Suite 101, Princeton, N.J. 08540 USA). The model type “Plasma” was used with uniform weighting.
In the final step, absorbed doses were calculated by multiplying the time integrals of the radioactive concentration by the energy release Δα=170·10^−6J/(μCi·h).
The mean absorbed doses in Gy calculated for protocol 146 are shown in Table 24, both as absolute values (RBE=1) and corrected for the higher cytotoxicity of alpha emitters (RBE=5).

[3] = labelled group 30 + 30 μCi 212Pb-DOTAM, multiple test level = 0.00238

NC(=O)CN1CCN(CC(N)=O)CCN(CC(N)=O)CCN(CC(N)=O)CC1.[212Pb+2] [^212Pb-DOTAM]
TGI ([1]; day 22, 30+30 μCi, compared with PBS): 64.7%
Pairwise Log-Rank Test, survival, p vs PRIT-0175 30 + 30 μCi [1, 3]: 0.0090*
Pairwise Log-Rank Test, survival, p vs PRIT-0213 30 + 30 μCi [1, 3]: <0.0001*
Pairwise Log-Rank Test, survival, p vs PRIT-0213 30 μCi [1, 3]: <.0001*
Pairwise Log-Rank Test, survival, p vs PRIT-0214 30 + 30 μCi [1, 3]: <.0001*
Pairwise Log-Rank Test, survival, p vs PRIT-0214 30 μCi [1, 3]: 0.0091*
Pairwise Log-Rank Test, survival, p vs Vehicle (PBS) [1, 3]: 0.0034*
Pairwise Wilcoxon Test, survival, p vs PRIT-0175 30 + 30 μCi [1, 3]: 0.0417*
Pairwise Wilcoxon Test, survival, p vs PRIT-0213 30 + 30 μCi [1, 3]: 0.0002*
Pairwise Wilcoxon Test, survival, p vs PRIT-0213 30 μCi [1, 3]: 0.0002*
Pairwise Wilcoxon Test, survival, p vs PRIT-0214 30 + 30 μCi [1, 3]: 0.0002*
Pairwise Wilcoxon Test, survival, p vs PRIT-0214 30 μCi [1, 3]: 0.0160*
Pairwise Wilcoxon Test, survival, p vs Vehicle (PBS) [1, 3]: 0.0111*
absorbed dose in most normal tissues, except bladder ([2]; 20 μCi ^212Pb-DOTAM, RBE=1): below 2 Gy
Mean absorbed dose, RBE = 1 ([2]; Abdominal fat): 1.25 Gy
Mean absorbed dose, RBE = 5 ([2]; Abdominal fat): 6.25 Gy
Mean absorbed dose, RBE = 1 ([2]; Bladder): 6.53 Gy
Mean absorbed dose, RBE = 5 ([2]; Bladder): 32.64 Gy
Mean absorbed dose, RBE = 1 ([2]; Blood): 0.72 Gy
Mean absorbed dose, RBE = 5 ([2]; Blood): 3.60 Gy
Mean absorbed dose, RBE = 1 ([2]; Brain): 0.04 Gy
Mean absorbed dose, RBE = 5 ([2]; Brain): 0.19 Gy
Mean absorbed dose, RBE = 1 ([2]; Colon): 0.43 Gy
Mean absorbed dose, RBE = 5 ([2]; Colon): 2.17 Gy
Mean absorbed dose, RBE = 1 ([2]; Femoral bone): 0.27 Gy
Mean absorbed dose, RBE = 5 ([2]; Femoral bone): 1.33 Gy
Mean absorbed dose, RBE = 1 ([2]; Heart): 0.33 Gy
Mean absorbed dose, RBE = 5 ([2]; Heart): 1.63 Gy
Mean absorbed dose, RBE = 1 ([2]; Kidneys): 1.43 Gy
Mean absorbed dose, RBE = 5 ([2]; Kidneys): 7.14 Gy
Mean absorbed dose, RBE = 1 ([2]; Liver): 0.22 Gy
Mean absorbed dose, RBE = 5 ([2]; Liver): 1.09 Gy
Mean absorbed dose, RBE = 1 ([2]; Lung): 1.34 Gy
Mean absorbed dose, RBE = 5 ([2]; Lung): 6.69 Gy
Mean absorbed dose, RBE = 1 ([2]; Muscle): 0.29 Gy
Mean absorbed dose, RBE = 5 ([2]; Muscle): 1.47 Gy
Mean absorbed dose, RBE = 1 ([2]; Pancreas): 0.36 Gy
Mean absorbed dose, RBE = 5 ([2]; Pancreas): 1.80 Gy
Mean absorbed dose, RBE = 1 ([2]; Serum): 1.64 Gy
Mean absorbed dose, RBE = 5 ([2]; Serum): 8.20 Gy
Mean absorbed dose, RBE = 1 ([2]; Skin): 0.47 Gy
Mean absorbed dose, RBE = 5 ([2]; Skin): 2.33 Gy
Mean absorbed dose, RBE = 1 ([2]; Small intestine): 0.22 Gy
Mean absorbed dose, RBE = 5 ([2]; Small intestine): 1.08 Gy
Mean absorbed dose, RBE = 1 ([2]; Spleen): 0.27 Gy
Mean absorbed dose, RBE = 5 ([2]; Spleen): 1.36 Gy
Mean absorbed dose, RBE = 1 ([2]; Stomach): 0.24 Gy
Mean absorbed dose, RBE = 5 ([2]; Stomach): 1.20 Gy
Mean absorbed dose, RBE = 1 ([2]; Tail): 0.54 Gy
Mean absorbed dose, RBE = 5 ([2]; Tail): 2.69 Gy
Mean absorbed dose, RBE = 1 ([2]; Tumor (BxPC3)): 19.91 Gy
Mean absorbed dose, RBE = 5 ([2]; Tumor (BxPC3)): 99.55 Gy
Mean absorbed dose, RBE = 1 ([2]; Uterus): 0.61 Gy
Mean absorbed dose, RBE = 5 ([2]; Uterus): 3.04 Gy
